Data on 26 compounds can be found in PubChem BioAssay AID248 (DTP/NCI, 2004).

The test concerns L1210 leukemia ip in BDF1 mice, survival T/C. The experiment in a line: NCI In Vivo Anticancer Drug Screen. Data for tumor model L1210 Leukemia (intraperitoneal) in B6D2F1 (BDF1) mice. Particulars: endpoint: mean survival time, higher = longer survival. The method, boiled down:
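Antitumor effect is assessed in tumor-bearing animals. Survival in the compound arm is compared with a vehicle-dosed control arm and expressed as their quotient.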

Where [1] appears, read: dose: 100.0 mg/kg/injection, schedule: Q01DX001 (ip), vehicle: saline.
[2] abbreviates: dose: 200.0 mg/kg/injection, schedule: Q01DX001 (ip), vehicle: saline.
The mark [3] stands for this setting: dose: 400.0 mg/kg/injection, schedule: Q01DX001 (ip), vehicle: saline.
Where [4] appears, read: dose: 100.0 mg/kg/injection, schedule: Q01DX009 (ip), vehicle: Klucel (hydroxypropylcellulose) (HPC).
Where [5] appears, read: dose: 200.0 mg/kg/injection, schedule: Q01DX009 (ip), vehicle: Klucel (hydroxypropylcellulose) (HPC).
Setting [6] is: dose: 400.0 mg/kg/injection, schedule: Q01DX009 (ip), vehicle: Klucel (hydroxypropylcellulose) (HPC).
Setting [7] is: dose: 100.0 mg/kg/injection, schedule: Q04DX002 (ip), vehicle: Klucel (hydroxypropylcellulose) (HPC).
The mark [8] stands for this setting: dose: 200.0 mg/kg/injection, schedule: Q04DX002 (ip), vehicle: Klucel (hydroxypropylcellulose) (HPC).
The mark [9] stands for this setting: dose: 400.0 mg/kg/injection, schedule: Q04DX002 (ip), vehicle: Klucel (hydroxypropylcellulose) (HPC).
Setting [10] is: dose: 100.0 mg/kg/injection, schedule: Q04DX003 (ip), vehicle: Klucel (hydroxypropylcellulose) (HPC).
Where [11] appears, read: dose: 200.0 mg/kg/injection, schedule: Q04DX003 (ip), vehicle: Klucel (hydroxypropylcellulose) (HPC).
[12] abbreviates: dose: 100.0 mg/kg/injection, schedule: Q01DX009 (ip), vehicle: saline.

“And” between values parts separate entries of the source, which are not always exact repeats. Identical values can stand only once. Inconclusive results and toxic doses are left out.

As for `COC(=O)C(Nc1ccc([N+](=O)[O-])cc1[N+](=O)[O-])C(O)c1ccccc1` (centres undefined), the T/C is 98 % of control under setting [1], 111 % of control under setting [2] and 93 % of control under setting [3].

Turning to `NNc1nnc(-c2ccccc2)c2ccccc12`, the T/C by setting is: (dose: 15.0 mg/kg/injection, schedule: Q01DX001 (ip), vehicle: carboxymethylcellulose (CMC)) 95 % of control; (dose: 30.0 mg/kg/injection, schedule: Q01DX001 (ip), vehicle: carboxymethylcellulose (CMC)) 101 % of control; (dose: 60.0 mg/kg/injection, schedule: Q01DX001 (ip), vehicle: carboxymethylcellulose (CMC)) 100 % of control.

On to `Oc1ccc(Cl)cc1Br`, for which the T/C by setting is: (dose: 25.0 mg/kg/injection, schedule: Q01DX009 (ip), vehicle: saline with Tween-80) 100 % of control; (dose: 50.0 mg/kg/injection, schedule: Q01DX009 (ip), vehicle: saline with Tween-80) 88 % of control; (dose: 100.0 mg/kg/injection, schedule: Q01DX009 (ip), vehicle: saline with Tween-80) 100 % of control.

For `CCOC(=O)NC(C(=O)OC)C(=O)OC`, the T/C runs as follows: under setting [4], 97 % of control; (dose: 100.0 mg/kg/injection, schedule: Q04DX003 (ip), vehicle: saline) 100 % of control; under setting [5], 97 % of control; (dose: 200.0 mg/kg/injection, schedule: Q04DX003 (ip), vehicle: saline) 97 % of control; under setting [6], 97 % of control; (dose: 400.0 mg/kg/injection, schedule: Q04DX003 (ip), vehicle: saline) 100 % of control.

Regarding `O=C(O)c1cc2ccccc2c(N=Nc2ccc(S(=O)(=O)N(CCCl)CCCl)cc2)c1O`, the T/C reads like this: under setting [4], 113 % of control; under setting [5], 103 % of control; under setting [6], 111 % of control.

For the compound `Nc1ncc2[nH]c(I)nc2n1`, the T/C (dose: 5.0 mg/kg/injection, schedule: Q01DX001 (ip), vehicle: saline) is 98 % of control.

In the case of `O=S(=O)(F)c1cc(Cl)c(O)cc1Cl`, the T/C runs as follows: under setting [4], 97 % of control; under setting [5], 101 % of control.

Regarding `O=C(/C=C\c1ccccc1)OCc1ccccc1CN1CCCCC1`, the T/C reads like this: under setting [7], 108 % of control; under setting [8], 116 % of control; under setting [9], 90 % of control.

Take `COc1cc(N)c2ncccc2c1Cl`: the T/C is, setting by setting: under setting [1], 104 % of control; under setting [2], 104 % of control; under setting [3], 101 % of control.

In the case of `CCC(CO)Nc1nc2ccccc2c2ccccc12` (centres undefined), the T/C by setting is: under setting [4], 102 % of control; under setting [10], 98 % of control; under setting [5], 97 % of control; under setting [11], 89 % of control; (dose: 400.0 mg/kg/injection, schedule: Q04DX003 (ip), vehicle: Klucel (hydroxypropylcellulose) (HPC)) 88 % of control.

Regarding `CSc1nc(N)cc(OCc2ccccc2)n1`, the T/C was 100 % of control (dose: 50.0 mg/kg/injection, schedule: Q01DX001 (ip), vehicle: saline with Tween-80); 97 % of control (dose: 100.0 mg/kg/injection, schedule: Q01DX001 (ip), vehicle: saline with Tween-80); 92 % of control (dose: 200.0 mg/kg/injection, schedule: Q01DX001 (ip), vehicle: saline with Tween-80).

Take `Cc1ccccc1OCC(=O)Nc1cccc(NC(=O)COc2ccccc2C)c1`: the T/C (dose: 50.0 mg/kg/injection, schedule: Q04DX002 (sc), vehicle: olive oil, sesame oil, peanut oil) is 110 % of control; the T/C (dose: 100.0 mg/kg/injection, schedule: Q04DX002 (sc), vehicle: olive oil, sesame oil, peanut oil) is 100 % of control; the T/C (dose: 200.0 mg/kg/injection, schedule: Q04DX002 (sc), vehicle: olive oil, sesame oil, peanut oil) was 95 % of control.

On to `CCC1(C)n2c(=O)c3ccccc3c(=O)n21`, for which the T/C is, setting by setting: (dose: 100.0 mg/kg/injection, schedule: Q04DX002 (ip), vehicle: saline with Tween-80) 97 % of control; (dose: 200.0 mg/kg/injection, schedule: Q04DX002 (ip), vehicle: saline with Tween-80) 101 % of control; (dose: 400.0 mg/kg/injection, schedule: Q04DX002 (ip), vehicle: saline with Tween-80) 90 % of control.

Turning to `O=C(COc1ccc(Cl)cc1C(=O)O)NCc1ccc(NC(=O)Nc2cccc(S(=O)(=O)F)c2)cc1`, the T/C was 96 % of control under setting [1], 93 % of control under setting [2] and 104 % of control under setting [3].

Consider `c1ccc(CCSc2ncnc3nc[nH]c23)cc1`, for which the T/C (dose: 31.3 mg/kg/injection, schedule: Q01DX Z (ip), vehicle: saline) was 94 % of control; the T/C (dose: 62.5 mg/kg/injection, schedule: Q01DX Z (ip), vehicle: saline) is 94 % of control; the T/C under setting [12] was 122 % of control; the T/C (dose: 125.0 mg/kg/injection, schedule: Q01DX Z (ip), vehicle: saline) was 97 % of control; the T/C (dose: 175.0 mg/kg/injection, schedule: Q01DX001 (ip), vehicle: saline) is 100 % of control; the T/C (dose: 250.0 mg/kg/injection, schedule: Q01DX Z (ip), vehicle: saline) was 100 % of control and 101 % of control. Also, the T/C by setting is: (dose: 265.0 mg/kg/injection, schedule: Q01DX001 (ip), vehicle: saline) 93 % of control; (dose: 340.0 mg/kg/injection, schedule: Q01DX009 (ip), vehicle: saline) 159 % of control; under setting [3], 108 % of control; (dose: 500.0 mg/kg/injection, schedule: Q01DX Z (ip), vehicle: saline) 111 % of control; (dose: 600.0 mg/kg/injection, schedule: Q01DX001 (ip), vehicle: saline) 101 % of control; (dose: 1000.0 mg/kg/injection, schedule: Q01DX Z (ip), vehicle: saline) 117 % of control.

Take `O=S1(=O)CC(N2CCCCC2)C1`: the T/C (dose: 75.0 mg/kg/injection, schedule: Q01DX001 (ip), vehicle: saline) is 103 % of control.

Turning to `O=C(CI)Nc1ccc2oc(=O)c(C(=O)O)cc2c1`, the T/C (dose: 20.0 mg/kg/injection, schedule: Q01DX001 (ip), vehicle: Klucel (hydroxypropylcellulose) (HPC)) was 100 % of control; the T/C (dose: 40.0 mg/kg/injection, schedule: Q01DX001 (ip), vehicle: Klucel (hydroxypropylcellulose) (HPC)) was 108 % of control; the T/C (dose: 80.0 mg/kg/injection, schedule: Q01DX001 (ip), vehicle: Klucel (hydroxypropylcellulose) (HPC)) is 107 % of control; the T/C (dose: 100.0 mg/kg/injection, schedule: Q01DX001 (ip), vehicle: Klucel (hydroxypropylcellulose) (HPC)) is 97 % of control.

For the compound `O=P(Oc1ccccc1)(Oc1ccccc1)C(Nc1ccccc1)c1ccccc1` (centres undefined), the T/C (dose: 400.0 mg/kg/injection, schedule: Q04DX003 (ip), vehicle: saline with Tween-80) is 90 % of control.

Consider `Cc1cccc(C)c1N1C(=O)C2C(C1=O)C1(Cl)C(Cl)=C(Cl)C2(Cl)C1(Cl)Cl` (centres undefined), for which the T/C by setting is: (dose: 50.0 mg/kg/injection, schedule: Q01DX009 (ip), vehicle: Klucel (hydroxypropylcellulose) (HPC)) 95 % of control; under setting [4], 101 % of control; under setting [10], 114 % of control; under setting [11], 101 % of control.

Regarding `CCCCCCCCCCCCC(O)(CC)C(=O)O` (centres undefined), the T/C by setting is: under setting [7], 98 % of control; under setting [8], 91 % of control; under setting [9], 91 % of control.

Turning to `CC(=O)Nc1cccc(OCCOc2cccc([N+](=O)[O-])c2)c1`, the T/C was 100 % of control under setting [1], 101 % of control under setting [2] and 101 % of control under setting [3].

Regarding `Nc1nc(N)c(N=Nc2ccccc2S(=O)(=O)O)c(N)n1`, the T/C runs as follows: under setting [1], 105 % of control; under setting [2], 89 % of control; under setting [3], 96 % of control.

On to `O=C(NCCCC(NC(=O)OCc1ccccc1)C(=O)NCCCNCCCCNCCCNC(=O)C(CCCNC(=O)OCc1ccccc1)NC(=O)OCc1ccccc1)OCc1ccccc1` (centres undefined), for which the T/C (dose: 10.0 mg/kg/injection, schedule: Q01DX Z (ip), vehicle: saline) is 90 % of control.

`CCCCCCCCCCCC(=O)NC(=S)Nc1cc(OC)ccc1OC`: the T/C under setting [7] was 104 % of control, the T/C under setting [8] was 111 % of control and the T/C under setting [9] is 93 % of control.

Regarding `CC(C)=CCc1c(N)nc(N)[nH]c1=O`, the T/C by setting is: under setting [7], 98 % of control; under setting [8], 98 % of control; under setting [9], 106 % of control.

For the compound `CN(C)CCN(C(=O)c1ccc(N)cc1)c1ccccc1`, the T/C reads like this: (dose: 50.0 mg/kg/injection, schedule: Q01DX009 (ip), vehicle: saline) 91 % of control; under setting [12], 109 % of control.
